From patent publication US9758561B2 (priority 2014, dated 2017)
pEC50: −log10 of the molar value.

Molecular target: T1, human GLP-1 receptor (Homo sapiens, UniProt P43220)
T1 construct: expressed in transfected cells; host or cells: HEK-293
Assay: cAMP response of HEK-293 cells stably expressing human GLP-1 receptor (HTRF)
Assay type: cell-based
Conditions: Table 6; read-out: EC50 hGLP-1R
Experimental: For preparation, cells were split into T175 culture flasks and grown overnight to near confluency in medium (DMEM/10% FBS). Medium was then removed and cells washed with PBS lacking calcium and magnesium, followed by proteinase treatment with accutase (Sigma-Aldrich cat. no. A6964). Detached cells were washed and resuspended in assay buffer (1×HBSS; 20 mM HEPES, 0.1% BSA, 2 mM IBMX) and cellular density determined. They were then diluted to 400000 cells/ml and 25 μl-aliquots dispensed into the wells of 96-well plates. For measurement, 25 μl of test compound in assay buffer was added to the wells, followed by incubation for 30 minutes at room temperature. […] Potencies of peptidic compounds at the GLP-1, glucagon and GIP receptors were determined by exposing cells expressing human glucagon receptor (hGlucagon R), human GIP receptor (hGIP-R) or human GLP-1 receptor (hGLP-1R) to the listed compounds at increasing concentrations and measuring the formed cAMP as described in Methods.

T1 sequence (P43220 24-463): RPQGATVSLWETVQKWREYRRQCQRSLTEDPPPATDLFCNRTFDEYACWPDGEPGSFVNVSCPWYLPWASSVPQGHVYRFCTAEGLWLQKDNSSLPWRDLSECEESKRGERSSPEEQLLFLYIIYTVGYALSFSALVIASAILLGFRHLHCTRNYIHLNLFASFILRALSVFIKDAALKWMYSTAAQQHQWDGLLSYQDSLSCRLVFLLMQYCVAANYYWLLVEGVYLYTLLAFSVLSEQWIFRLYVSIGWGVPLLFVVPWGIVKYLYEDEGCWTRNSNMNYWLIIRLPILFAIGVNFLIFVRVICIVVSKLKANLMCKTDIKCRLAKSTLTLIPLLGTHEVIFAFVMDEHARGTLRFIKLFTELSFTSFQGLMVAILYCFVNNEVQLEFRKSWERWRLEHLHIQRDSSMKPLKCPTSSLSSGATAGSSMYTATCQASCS

Row | Structure (SMILES) | pEC50
1 | CCCCCCCCCCCCCCCCCC(=O)N[C@@H](CCC(=O)NCCCC[C@H](NC(=O)[C@H](CCC(N)=O)NC(=O)[C@H](CCCCN)NC(=O)[C@H](CO)NC(=O)[C@H](CC(C)C)NC(=O)[C@H](CC(=O)O)NC(=O)[C@H](CO)NC(=O)[C@@H](NC(=O)[C@H](Cc1ccccc1)NC(=O)[C@@H](NC(=O)CNC(=O)[C@H](CCC(N)=O)NC(=O)[C@@H](CO)NC(=O)[C@@H](N)Cc1c[nH]cn1)[C@@H](C)O)[C@@H](C)O)C(=O)N[C@@H](CC(=O)O)C(=O)N[C@@H](CCC(=O)O)C(=O)N[C@@H](CCC(=O)O)C(=O)N[C@@H](C)C(=O)N[C@@H](C)C(=O)N[C@@H](CCCNC(=N)N)C(=O)N[C@@H](CC(C)C)C(=O)N[C@@H](Cc1ccccc1)C(=O)N[C@H](C(=O)N[C@@H](CCC(=O)O)C(=O)N[C@@H](Cc1c[nH]c2ccccc12)C(=O)N[C@@H](CC(C)C)C(=O)NC(C)(C)C(=O)N[C@@H](CCCCN)C(=O)N[C@H](C)C(=O)NCC(=O)N1CCC[C@H]1C(=O)N[C@@H](CO)C(=O)N[C@@H](CO)C(=O)NCC(=O)N[C@@H](C)C(=O)N1CCC[C@H]1C(=O)N1CCC[C@H]1C(=O)N1CCC[C@H]1C(=O)N[C@@H](CO)C(N)=O)[C@@H](C)CC)C(=O)O [SEQ ID NO: 25, H-dSer-Q-G-T-F-T-S-D-L-S-K-Q-K(γE-x70)-D-E-E-A-A-R-L-F-I-E-W-L-Aib-K-dAla-G-P-S-S-G-A-P-P-P-S-NH2] | 11.68
2 | CCCCCCCCCCCCCCCCCC(=O)NCCOCCOCC(=O)NCCOCCOCC(=O)NCCOCCOCC(=O)NCCCC[C@H](NC(=O)[C@H](CCC(N)=O)NC(=O)[C@H](CCCCN)NC(=O)[C@H](CO)NC(=O)[C@H](CC(C)C)NC(=O)[C@H](CC(=O)O)NC(=O)[C@H](CO)NC(=O)[C@@H](NC(=O)[C@H](Cc1ccccc1)NC(=O)[C@@H](NC(=O)CNC(=O)[C@H](CCC(N)=O)NC(=O)[C@@H](CO)NC(=O)[C@@H](N)Cc1c[nH]cn1)[C@@H](C)O)[C@@H](C)O)C(=O)N[C@@H](CC(=O)O)C(=O)N[C@@H](CCC(=O)O)C(=O)N[C@@H](CCC(=O)O)C(=O)N[C@@H](C)C(=O)N[C@@H](C)C(=O)N[C@@H](CCCNC(=N)N)C(=O)N[C@@H](CC(C)C)C(=O)N[C@@H](Cc1ccccc1)C(=O)N[C@H](C(=O)N[C@@H](CCC(=O)O)C(=O)N[C@@H](Cc1c[nH]c2ccccc12)C(=O)N[C@@H](CC(C)C)C(=O)NC(C)(C)C(=O)N[C@@H](C)C(=O)NCC(=O)NCC(=O)N1CCC[C@H]1C(=O)N[C@@H](CO)C(=O)N[C@@H](CO)C(=O)NCC(=O)N[C@@H](C)C(=O)N1CCC[C@H]1C(=O)N1CCC[C@H]1C(=O)N1CCC[C@H]1C(=O)N[C@@H](CO)C(N)=O)[C@@H](C)CC [SEQ ID NO: 22, H-dSer-Q-G-T-F-T-S-D-L-S-K-Q-K(AEEAc-AEEAc-AEEAc-x70)-D-E-E-A-A-R-L-F-I-E-W-L-Aib-A-G-G-P-S-S-G-A-P-P-P-S-NH2] | 11.74
3 | CCCCCCCCCCCCCCCC(=O)N[C@@H](CCC(=O)N[C@@H](CCC(=O)NCCCC[C@H](NC(=O)[C@H](CCC(N)=O)NC(=O)[C@H](CCCCN)NC(=O)[C@H](CO)NC(=O)[C@H](CC(C)C)NC(=O)[C@H](CC(=O)O)NC(=O)[C@H](CO)NC(=O)[C@@H](NC(=O)[C@H](Cc1ccccc1)NC(=O)[C@@H](NC(=O)CNC(=O)[C@H](CCC(N)=O)NC(=O)[C@@H](CO)NC(=O)[C@@H](N)Cc1c[nH]cn1)[C@@H](C)O)[C@@H](C)O)C(=O)N[C@@H](CC(=O)O)C(=O)N[C@@H](CCC(=O)O)C(=O)N[C@@H](CCC(=O)O)C(=O)N[C@@H](C)C(=O)N[C@@H](C)C(=O)N[C@@H](CCCNC(=N)N)C(=O)N[C@@H](CC(C)C)C(=O)N[C@@H](Cc1ccccc1)C(=O)N[C@H](C(=O)N[C@@H](CCC(=O)O)C(=O)N[C@@H](Cc1c[nH]c2ccccc12)C(=O)N[C@@H](CC(C)C)C(=O)NC(C)(C)C(=O)N[C@@H](CO)C(=O)NCC(=O)NCC(=O)N1CCC[C@H]1C(=O)N[C@@H](CO)C(=O)N[C@@H](CO)C(=O)NCC(=O)N[C@@H](C)C(=O)N1CCC[C@H]1C(=O)N1CCC[C@H]1C(=O)N1CCC[C@H]1C(=O)N[C@@H](CO)C(N)=O)[C@@H](C)CC)C(=O)O)C(=O)O [SEQ ID NO: 15, H-dSer-Q-G-T-F-T-S-D-L-S-K-Q-K(γE-γE-x53)-D-E-E-A-A-R-L-F-I-E-W-L-Aib-S-G-G-P-S-S-G-A-P-P-P-S-NH2] | 11.74
